In PubChem BioAssay (NCI):
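A five-concentration, 48-hour dose response in 96-well plates underlies each endpoint, interpolated linearly between surrounding concentrations. GI50: concentration for 50% inhibition of growth. TGI: concentration producing complete growth inhibition.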

Tests used:
Experiment in all cases: NCI tumour cell line growth inhibition, 48 h
786-0 renal = test system: 786-0 renal
A498 renal = test system: A498 renal
A549 NSCLC = test system: A549 NSCLC
ACHN renal = test system: ACHN renal
BT-549 breast = test system: BT-549 breast
CAKI-1 renal = test system: CAKI-1 renal
CCRF-CEM leukemia = test system: CCRF-CEM leukemia
COLO 205 colon = test system: COLO 205 colon
DU-145 prostate = test system: DU-145 prostate
EKVX NSCLC = test system: EKVX NSCLC
HCC-2998 colon = test system: HCC-2998 colon
HCT-116 colon = test system: HCT-116 colon
HCT-15 colon = test system: HCT-15 colon
HL-60(TB) leukemia = test system: HL-60(TB) leukemia
HOP-62 NSCLC = test system: HOP-62 NSCLC
HOP-92 NSCLC = test system: HOP-92 NSCLC
HS 578T breast = test system: HS 578T breast
HT29 colon = test system: HT29 colon
IGROV1 ovarian = test system: IGROV1 ovarian
K-562 leukemia = test system: K-562 leukemia
KM12 colon = test system: KM12 colon
LOX IMVI melanoma = test system: LOX IMVI melanoma
M14 melanoma = test system: M14 melanoma
MALME-3M melanoma = test system: MALME-3M melanoma
MCF7 breast = test system: MCF7 breast
MDA-MB-231 breast = test system: MDA-MB-231 breast
MDA-MB-435 = test system: MDA-MB-435
MOLT-4 leukemia = test system: MOLT-4 leukemia
NCI-H226 lung = test system: NCI-H226 lung
NCI-H23 lung = test system: NCI-H23 lung
NCI-H522 lung = test system: NCI-H522 lung
NCI/ADR-RES ovarian = test system: NCI/ADR-RES ovarian
OVCAR-3 ovarian = test system: OVCAR-3 ovarian
OVCAR-4 ovarian = test system: OVCAR-4 ovarian
OVCAR-5 ovarian = test system: OVCAR-5 ovarian
OVCAR-8 ovarian = test system: OVCAR-8 ovarian
PC-3 prostate = test system: PC-3 prostate
RPMI-8226 leukemia = test system: RPMI-8226 leukemia
RXF 393 renal = test system: RXF 393 renal
SF-268 CNS = test system: SF-268 CNS
SF-295 CNS = test system: SF-295 CNS
SF-539 CNS = test system: SF-539 CNS
SK-MEL-2 melanoma = test system: SK-MEL-2 melanoma
SK-MEL-28 melanoma = test system: SK-MEL-28 melanoma
SK-MEL-5 melanoma = test system: SK-MEL-5 melanoma
SK-OV-3 ovarian = test system: SK-OV-3 ovarian
SN12C renal = test system: SN12C renal
SNB-19 CNS = test system: SNB-19 CNS
SNB-75 CNS = test system: SNB-75 CNS
SR leukemia = test system: SR leukemia
SW-620 colon = test system: SW-620 colon
T-47D breast = test system: T-47D breast
TK-10 renal = test system: TK-10 renal
U251 CNS = test system: U251 CNS
UACC-257 melanoma = test system: UACC-257 melanoma
UACC-62 melanoma = test system: UACC-62 melanoma
UO-31 renal = test system: UO-31 renal

## COc1cccc2c1C(=O)c1c(O)c3c(c(O)c1C2=O)C[C@@](O)(C(C)=O)C[C@@H]3O[C@H]1C[C@H](N)[C@H](O)[C@H](C)O1
786-0 renal
  GI50: 68.5 nM
  TGI: 517 nM
A498 renal
  TGI: 896 nM
A549 NSCLC
  GI50: 42.7 nM
  TGI: 201 nM
ACHN renal
  GI50: 45.2 nM
  TGI: 395 nM
BT-549 breast
  GI50: 153 nM
  TGI: 924 nM
CAKI-1 renal
  GI50: 229 nM
  TGI: 1530 nM
CCRF-CEM leukemia
  GI50: 22.8 nM
  TGI: 293 nM
COLO 205 colon
  GI50: 52.4 nM
  TGI: 655 nM
DU-145 prostate
  GI50: 68.7 nM
  TGI: 340 nM
EKVX NSCLC
  GI50: 360 nM
  TGI: 2630 nM
HCC-2998 colon
  GI50: 99.2 nM
  TGI: 475 nM
HCT-116 colon
  GI50: 28.6 nM
  TGI: 216 nM
HCT-15 colon
  TGI: 5690 nM
HL-60(TB) leukemia
  GI50: 31.2 nM
  TGI: 358 nM
HOP-62 NSCLC
  GI50: 53 nM
  TGI: 263 nM
HOP-92 NSCLC
  GI50: 29.6 nM
  TGI: 276 nM
HS 578T breast
  GI50: 120 nM
  TGI: 1820 nM
HT29 colon
  GI50: 50.7 nM
  TGI: 337 nM
IGROV1 ovarian
  GI50: 60.9 nM
  TGI: 2580 nM
K-562 leukemia
  GI50: 51.3 nM
  TGI: 868 nM
KM12 colon
  GI50: 96 nM
  TGI: 497 nM
LOX IMVI melanoma
  TGI: 107 nM
M14 melanoma
  GI50: 118 nM
  TGI: 653 nM
MALME-3M melanoma
  TGI: 235 nM
MCF7 breast
  GI50: 19.5 nM
  TGI: 2040 nM
MDA-MB-231 breast
  GI50: 201 nM
  TGI: 2750 nM
MDA-MB-435
  GI50: 137 nM
  TGI: 672 nM
MOLT-4 leukemia
  GI50: 16.5 nM
  TGI: 117 nM
NCI-H226 lung
  GI50: 53.2 nM
  TGI: 119 nM
NCI-H23 lung
  GI50: 59.4 nM
  TGI: 262 nM
NCI-H522 lung
  GI50: 36.2 nM
  TGI: 163 nM
NCI/ADR-RES ovarian
  GI50: 1230 nM
  TGI: 9040 nM
OVCAR-3 ovarian
  GI50: 125 nM
  TGI: 777 nM
OVCAR-4 ovarian
  GI50: 128 nM
  TGI: 1060 nM
OVCAR-5 ovarian
  GI50: 155 nM
  TGI: 2260 nM
OVCAR-8 ovarian
  GI50: 41.6 nM
  TGI: 1090 nM
PC-3 prostate
  GI50: 108 nM
  TGI: 975 nM
RPMI-8226 leukemia
  GI50: 90.2 nM
  TGI: 327 nM
RXF 393 renal
  GI50: 92.4 nM
  TGI: 341 nM
SF-268 CNS
  GI50: 54.8 nM
  TGI: 585 nM
SF-295 CNS
  GI50: 42.8 nM
  TGI: 245 nM
SF-539 CNS
  TGI: 546 nM
SK-MEL-2 melanoma
  GI50: 158 nM
  TGI: 506 nM
SK-MEL-28 melanoma
  GI50: 132 nM
  TGI: 680 nM
SK-MEL-5 melanoma
  GI50: 48.8 nM
  TGI: 143 nM
SK-OV-3 ovarian
  GI50: 88.7 nM
  TGI: 1320 nM
SN12C renal
  GI50: 41.6 nM
  TGI: 451 nM
SNB-19 CNS
  GI50: 36.1 nM
  TGI: 1350 nM
SNB-75 CNS
  GI50: 39.1 nM
  TGI: 359 nM
SR leukemia
  GI50: 7.24 nM
  TGI: 188 nM
SW-620 colon
  GI50: 35.5 nM
  TGI: 855 nM
T-47D breast
  GI50: 40.8 nM
  TGI: 312 nM
TK-10 renal
  GI50: 93.6 nM
  TGI: 793 nM
U251 CNS
  GI50: 38.1 nM
  TGI: 217 nM
UACC-257 melanoma
  TGI: 426 nM
UACC-62 melanoma
  GI50: 59.8 nM
  TGI: 205 nM
UO-31 renal
  GI50: 175 nM
  TGI: 1260 nM
